The conditions of the data set: for aqueous solubility: pH 6.8.

In brackets after ≈: the same amount, converted by molar mass.

With `COC(=O)[C@@H]1Cc2ncn(Cc3ccccc3)c2CN1C(C)=O`, the MDR1-MDCK efflux ratio worked out at 17.6; the intrinsic clearance, human liver microsomes is 6.26 mL/min/kg; the intrinsic clearance, rat liver microsomes turned out to be 97.3 mL/min/kg; the aqueous solubility (as a rule, the concentration that dissolves in the medium under given conditions) was determined as 32.2 µg/mL (≈ 103 µM).

On to `COc1ccc(Cl)cc1-c1cccc(C(=O)NCCN2CCCC2=O)c1`, for which the MDR1-MDCK efflux ratio came to 6.01; the intrinsic clearance, human liver microsomes worked out at 106 mL/min/kg; the intrinsic clearance, rat liver microsomes was 875 mL/min/kg.

`Cn1cc(NC(=O)c2csc(Cc3ccccc3)n2)cn1`: the intrinsic clearance, human liver microsomes was found to be 23.7 mL/min/kg; the intrinsic clearance, rat liver microsomes was 64.8 mL/min/kg; the aqueous solubility stood at 34.5 µg/mL (≈ 116 µM).

As to `Cc1ccccc1CSc1ccc(-c2ccccn2)nn1`, the MDR1-MDCK efflux ratio stood at 0.589; the intrinsic clearance, human liver microsomes amounted to 95.6 mL/min/kg; the intrinsic clearance, rat liver microsomes is 537 mL/min/kg; the aqueous solubility came out at 1.75 µg/mL (≈ 5.96 µM).

For the molecule `CNCc1cc(N(C)C)nc(C2CCCN2C(=O)C2CCCC2)n1` (stereo not drawn), the MDR1-MDCK efflux ratio came to 45.6; the intrinsic clearance, human liver microsomes is at most 4.74 mL/min/kg; the intrinsic clearance, rat liver microsomes came to 249 mL/min/kg.

The molecule `CC(C)(C)c1cc(NS(=O)(=O)c2c(Cl)cccc2Cl)cc(C(C)(C)C)c1` came in with an intrinsic clearance, human liver microsomes of 89.6 mL/min/kg and an intrinsic clearance, rat liver microsomes of 1030 mL/min/kg.

As for `COCCCNc1ncc(-c2ccsc2)c(-c2nc(C)c(C)s2)n1`, the intrinsic clearance, human liver microsomes is 23.6 mL/min/kg and the intrinsic clearance, rat liver microsomes was 98.1 mL/min/kg.

`O=S(=O)(c1ccccc1)N(CC(F)(F)F)c1ccc(C(O)(C(F)(F)F)C(F)(F)F)cc1` registered an intrinsic clearance, human liver microsomes of 7.61 mL/min/kg and an intrinsic clearance, rat liver microsomes of 14.6 mL/min/kg.

`Cc1cnc(CS(=O)(=O)C2CCCC2)cn1` came in with an aqueous solubility of 36.2 µg/mL (≈ 151 µM).

In turn, `c1csc(Cc2nc(-c3cnccn3)no2)c1` displayed an intrinsic clearance, human liver microsomes of 10.8 mL/min/kg and an intrinsic clearance, rat liver microsomes of 80.8 mL/min/kg.

`C#CCN1CCN(C(=O)CCS(C)(=O)=O)CC1` displayed an intrinsic clearance, human liver microsomes of at most 4.74 mL/min/kg; an intrinsic clearance, rat liver microsomes of at most 10.7 mL/min/kg; an aqueous solubility of 73.8 µg/mL (≈ 285 µM).

Regarding `CSc1ccc(C(=O)Nc2cccc(C(=O)NCC(C)C)c2)cc1`, the MDR1-MDCK efflux ratio came out at 1.59; the intrinsic clearance, human liver microsomes was found to be 119 mL/min/kg; the intrinsic clearance, rat liver microsomes turned out to be 2660 mL/min/kg.

Take `O=c1[nH]c2ccccc2n1C1CCN(Cc2nc(-c3ccsc3)no2)CC1`: the MDR1-MDCK efflux ratio came out at 3.73; the intrinsic clearance, human liver microsomes stood at 16.3 mL/min/kg; the intrinsic clearance, rat liver microsomes came to 263 mL/min/kg; the aqueous solubility was determined as 5.8 µg/mL (≈ 15.2 µM).

With `CN(C)C1=N[C@@H]2[C@@H](O)[C@H](O)[C@@H](CO)O[C@@H]2S1`, the MDR1-MDCK efflux ratio stood at 0.274; the intrinsic clearance, human liver microsomes was at most 4.74 mL/min/kg; the intrinsic clearance, rat liver microsomes is at most 10.7 mL/min/kg; the aqueous solubility turned out to be 36.7 µg/mL (≈ 148 µM).

Consider `Cc1noc(C)c1COc1ccc2ncccc2c1`, for which the intrinsic clearance, human liver microsomes was 86.8 mL/min/kg and the intrinsic clearance, rat liver microsomes is 337 mL/min/kg.

Take `O=C(NCc1cccc(O)c1)Nc1ccccc1F`: the intrinsic clearance, human liver microsomes was at most 4.74 mL/min/kg; the intrinsic clearance, rat liver microsomes came out at 58.9 mL/min/kg; the aqueous solubility stood at 36.4 µg/mL (≈ 140 µM).

For the molecule `C[C@H]1NC(=O)N(CCc2nc(C(F)(F)F)cs2)C1=O`, the MDR1-MDCK efflux ratio was found to be 1.6; the intrinsic clearance, human liver microsomes amounted to 5.83 mL/min/kg; the intrinsic clearance, rat liver microsomes is 24.8 mL/min/kg.

Consider `Cc1nc(-c2ccccc2)c(C(=O)Nc2ccccc2)s1`, for which the MDR1-MDCK efflux ratio stood at 0.571 and the aqueous solubility was found to be 0.9 µg/mL (≈ 3.06 µM).

For the molecule `O=C(NCc1ccc2c(c1)OCCO2)c1sccc1C1CC1`, the MDR1-MDCK efflux ratio came out at 0.474; the intrinsic clearance, human liver microsomes is 147 mL/min/kg; the intrinsic clearance, rat liver microsomes amounted to 2320 mL/min/kg; the aqueous solubility worked out at 31.2 µg/mL (≈ 98.9 µM).

With `N#CCn1ncnc1-c1cccc(C#N)c1`, the MDR1-MDCK efflux ratio stood at 0.748; the intrinsic clearance, human liver microsomes is at most 4.74 mL/min/kg; the intrinsic clearance, rat liver microsomes was determined as 50.8 mL/min/kg.

`O=C(COCc1nc2ccccc2s1)N1CCC(n2c(=O)[nH]c3ccccc32)CC1` displayed an intrinsic clearance, human liver microsomes of 68.6 mL/min/kg and an intrinsic clearance, rat liver microsomes of 1020 mL/min/kg.

Molecule `Clc1ccc2[nH]c(COc3ccccc3)nc2c1` gave an intrinsic clearance, human liver microsomes of 27.9 mL/min/kg; an intrinsic clearance, rat liver microsomes of 338 mL/min/kg; an aqueous solubility of 29.5 µg/mL (≈ 114 µM).

For the molecule `COc1cc(OC)c(OC)cc1CNC(C)(C)C`, the MDR1-MDCK efflux ratio was 4.78; the intrinsic clearance, human liver microsomes is at most 4.74 mL/min/kg; the intrinsic clearance, rat liver microsomes amounted to 110 mL/min/kg.

Turning to `Cc1cccc(NC(=O)CN(C)Cc2nc3ccccc3c(=O)[nH]2)c1C`, the MDR1-MDCK efflux ratio was 17.6; the intrinsic clearance, human liver microsomes is 54 mL/min/kg; the intrinsic clearance, rat liver microsomes stood at 571 mL/min/kg.

Turning to `Fc1cccc(CN2CCN(c3ncccn3)CC2)c1`, the MDR1-MDCK efflux ratio is 0.527; the intrinsic clearance, human liver microsomes turned out to be 111 mL/min/kg; the intrinsic clearance, rat liver microsomes was determined as 1120 mL/min/kg; the aqueous solubility was 38 µg/mL (≈ 140 µM).

As for `CN(C)c1cc(CNC(=O)C2CCOCC2)ccn1`, the MDR1-MDCK efflux ratio came to 4.87; the intrinsic clearance, human liver microsomes was at most 4.74 mL/min/kg; the intrinsic clearance, rat liver microsomes is at most 10.7 mL/min/kg; the aqueous solubility was determined as 41.2 µg/mL (≈ 156 µM).

`COc1ccc(-c2cccc(C3CCCN(C(=O)C4CCCC4)C3)n2)cc1` (stereo not drawn): the MDR1-MDCK efflux ratio is 0.717; the intrinsic clearance, human liver microsomes is 175 mL/min/kg; the intrinsic clearance, rat liver microsomes was 1980 mL/min/kg; the aqueous solubility is 2.45 µg/mL (≈ 6.72 µM).

As for `CCc1nc(N2CC(CO)C2)c2ccsc2n1`, the MDR1-MDCK efflux ratio turned out to be 1.33; the intrinsic clearance, human liver microsomes stood at 10.7 mL/min/kg; the intrinsic clearance, rat liver microsomes was 50 mL/min/kg.

Molecule `CS(=O)(=O)CCN1CCC(n2c(=O)[nH]c3ccccc32)CC1` came in with an intrinsic clearance, human liver microsomes of at most 4.74 mL/min/kg; an intrinsic clearance, rat liver microsomes of at most 10.7 mL/min/kg; an aqueous solubility of 62.9 µg/mL (≈ 194 µM).

Regarding `Cc1ncsc1-c1cncc(CC2CCCN(C)C2)n1` (stereo not drawn), the MDR1-MDCK efflux ratio was found to be 0.97; the intrinsic clearance, human liver microsomes was found to be 32 mL/min/kg; the intrinsic clearance, rat liver microsomes is 108 mL/min/kg.

With `O=C(NCCc1ccccc1)c1ccc(NC(=O)N2CCCCc3ccccc32)cc1`, the MDR1-MDCK efflux ratio worked out at 2.11; the fraction unbound, human plasma came to 0.0119; the intrinsic clearance, human liver microsomes came to 256 mL/min/kg.

`Cc1cncc(CN2CCC(=C3c4ccc(Cl)cc4CCc4cccnc43)CC2)c1`: the MDR1-MDCK efflux ratio was determined as 1.45; the intrinsic clearance, human liver microsomes was found to be 511 mL/min/kg; the intrinsic clearance, rat liver microsomes worked out at 1010 mL/min/kg.

In the case of `Cc1cc(Nc2nnc(C)s2)cc(C2CN(C(=O)c3c(C(C)C)noc3C)CCO2)n1` (stereo not drawn), the MDR1-MDCK efflux ratio is 54.3; the intrinsic clearance, human liver microsomes came out at 22.5 mL/min/kg; the intrinsic clearance, rat liver microsomes came to 151 mL/min/kg.

For the molecule `CC(=O)c1c(C)c2cnc(Nc3ccc(N4CCNCC4)cn3)nc2n(C2CCCC2)c1=O`, the MDR1-MDCK efflux ratio stood at 63.1; the intrinsic clearance, human liver microsomes amounted to 12.8 mL/min/kg; the intrinsic clearance, rat liver microsomes is 34.7 mL/min/kg; the aqueous solubility is 46.2 µg/mL (≈ 103 µM).

In the case of `Fc1cccc2c1CN(Cc1c[nH]nc1-c1cccnc1)CC2`, the intrinsic clearance, human liver microsomes turned out to be 92.9 mL/min/kg and the intrinsic clearance, rat liver microsomes was 1240 mL/min/kg.

Take `COCCc1noc(CN(C)C(=O)c2ccc3c(c2)CCC3)n1`: the MDR1-MDCK efflux ratio is 0.812; the intrinsic clearance, human liver microsomes was found to be 10.4 mL/min/kg; the intrinsic clearance, rat liver microsomes was 263 mL/min/kg.

Turning to `CN(Cc1cscn1)c1nc2c(cc1C#N)CCC2`, the MDR1-MDCK efflux ratio turned out to be 0.641; the intrinsic clearance, human liver microsomes was 94.9 mL/min/kg; the intrinsic clearance, rat liver microsomes is 1180 mL/min/kg; the aqueous solubility came out at 33.6 µg/mL (≈ 124 µM).

As to `NCCCc1nc(-c2ccncc2)cs1`, the intrinsic clearance, human liver microsomes turned out to be 29.3 mL/min/kg and the intrinsic clearance, rat liver microsomes stood at 239 mL/min/kg.

For the molecule `O=C([C@H]1CCCN(Cc2ccc(Cl)cc2)C1)N1CCc2ccccc2C1`, the MDR1-MDCK efflux ratio came to 0.788; the intrinsic clearance, human liver microsomes came out at 251 mL/min/kg; the intrinsic clearance, rat liver microsomes was 3840 mL/min/kg; the aqueous solubility was determined as 43.2 µg/mL (≈ 117 µM).

For `CCCCCCCCc1ccc(CCC(N)(CO)CO)cc1`, the intrinsic clearance, human liver microsomes came to 7.6 mL/min/kg and the intrinsic clearance, rat liver microsomes was 17 mL/min/kg.

`CN(C)Cc1ccnc(NC(=O)c2ccsc2)c1` gave an intrinsic clearance, human liver microsomes of 6.67 mL/min/kg and an intrinsic clearance, rat liver microsomes of 397 mL/min/kg.

`CCc1oc2c(-n3cnnc3)cccc2c1C`: the MDR1-MDCK efflux ratio was 0.587; the intrinsic clearance, human liver microsomes turned out to be 111 mL/min/kg; the intrinsic clearance, rat liver microsomes worked out at 169 mL/min/kg; the aqueous solubility is 22.6 µg/mL (≈ 99.4 µM).

`CCCCN(CC)c1nc(C)nc2c1c(C)c(C)n2-c1c(C)cc(C)cc1C` registered an intrinsic clearance, human liver microsomes of 198 mL/min/kg and an intrinsic clearance, rat liver microsomes of 1380 mL/min/kg.

Turning to `N#CC1(CN2CCc3cc(-c4ccccc4)oc3C2)CC1`, the MDR1-MDCK efflux ratio is 0.273; the intrinsic clearance, human liver microsomes was determined as 72.7 mL/min/kg; the intrinsic clearance, rat liver microsomes turned out to be 503 mL/min/kg; the aqueous solubility worked out at 30.3 µg/mL (≈ 109 µM).

With `CCNC(=O)C1CN(c2nc(C3CC3)nc3c2CCC3)C1`, the MDR1-MDCK efflux ratio was determined as 23.5; the intrinsic clearance, human liver microsomes is at most 4.74 mL/min/kg; the intrinsic clearance, rat liver microsomes came out at 19.9 mL/min/kg; the aqueous solubility was 45 µg/mL (≈ 157 µM).

On to `Nc1ncnc2ccc(-c3ccnc(F)c3)nc12`, for which the MDR1-MDCK efflux ratio was 0.726; the intrinsic clearance, human liver microsomes was at most 4.74 mL/min/kg; the intrinsic clearance, rat liver microsomes was at most 10.7 mL/min/kg.

As for `CN(C(=O)CNC(=O)c1ccccc1OCC(=O)Nc1ccc(Br)cc1)c1ccccc1`, the MDR1-MDCK efflux ratio is 3.43 and the aqueous solubility came out at 0.35 µg/mL (≈ 0.705 µM).

Molecule `COc1ccc(CNC(=O)CCSc2nc3c(=O)n(C)c(=O)n(C)c3n2C)cc1` displayed an intrinsic clearance, human liver microsomes of 52 mL/min/kg and an intrinsic clearance, rat liver microsomes of 247 mL/min/kg.

For the molecule `Cc1cc2c(s1)c1cnn(Cc3ccccc3F)c(=O)c1n2C`, the intrinsic clearance, human liver microsomes amounted to 326 mL/min/kg and the intrinsic clearance, rat liver microsomes was determined as 2650 mL/min/kg.

Regarding `CN1CCc2ncnc(N3CCCN(c4nccs4)CC3)c2C1`, the MDR1-MDCK efflux ratio turned out to be 4.76; the intrinsic clearance, human liver microsomes was found to be 23.3 mL/min/kg; the intrinsic clearance, rat liver microsomes was determined as 131 mL/min/kg; the aqueous solubility was found to be 43.2 µg/mL (≈ 131 µM).

For the origin of these results see the Biogen ADME set (Fang et al. 2023).
